Assay [1] has as its target T1, D(3) dopamine receptor (Homo sapiens, UniProt P35462). As to the kind of experiment: Partial agonist activity at dopamine D3 receptor (unknown origin) expressed in HEK293 cells at 10 pM to 100 uM after 30 mins by beta-arrestin recruitment assay relative to dopamine. The class given is cell-based.
Another assay is filed under the species Homo sapiens. As to the kind of experiment: Selectivity ratio of Ki for human dopamine D2 receptor to Ki for human dopamine D3 receptor.
Another assay concerns the target D(2) dopamine receptor (Homo sapiens, UniProt P14416). As to the kind of experiment: Displacement of [3H]-N-methylspiperone from human dopamine D2 receptor expressed in HEK293 cells after 1 hr by MicroBeta microplate counting method. It is filed as cell-based.
For assay [2], the target named is T1, D(3) dopamine receptor. As to the kind of experiment: Partial agonist activity at dopamine D3 receptor (unknown origin) expressed in HEK293 cells at 10 pM to 100 uM after 2 mins by BRET-based Go activation assay relative to dopamine. The conditions noted are these: for Emax: 10 pM. The class given is cell-based. A general note: Bioluminescence resonance energy transfer reports proximity on the nanometre scale.

Assay [3] has as its target T1, D(3) dopamine receptor. As to the kind of experiment: Displacement of [3H]-N-methylspiperone from human dopamine D3 receptor expressed in HEK293 cells after 1 hr by MicroBeta microplate counting method. It is filed as cell-based.

Calls of active or inactive are those of the source. No cut-off for these calls is given here.

T1 sequence (P35462 whole entry): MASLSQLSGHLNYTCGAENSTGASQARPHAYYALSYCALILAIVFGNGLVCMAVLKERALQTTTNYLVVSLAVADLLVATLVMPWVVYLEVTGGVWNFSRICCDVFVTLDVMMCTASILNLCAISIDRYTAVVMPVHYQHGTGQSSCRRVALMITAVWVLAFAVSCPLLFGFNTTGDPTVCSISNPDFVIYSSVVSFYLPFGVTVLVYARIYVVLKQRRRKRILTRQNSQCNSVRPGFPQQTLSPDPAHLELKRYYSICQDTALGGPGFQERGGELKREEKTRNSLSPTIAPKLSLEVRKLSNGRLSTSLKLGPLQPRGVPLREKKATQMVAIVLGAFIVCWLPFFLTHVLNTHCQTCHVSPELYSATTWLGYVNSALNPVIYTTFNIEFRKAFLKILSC
D(2) dopamine receptor, sequence (P14416 whole entry): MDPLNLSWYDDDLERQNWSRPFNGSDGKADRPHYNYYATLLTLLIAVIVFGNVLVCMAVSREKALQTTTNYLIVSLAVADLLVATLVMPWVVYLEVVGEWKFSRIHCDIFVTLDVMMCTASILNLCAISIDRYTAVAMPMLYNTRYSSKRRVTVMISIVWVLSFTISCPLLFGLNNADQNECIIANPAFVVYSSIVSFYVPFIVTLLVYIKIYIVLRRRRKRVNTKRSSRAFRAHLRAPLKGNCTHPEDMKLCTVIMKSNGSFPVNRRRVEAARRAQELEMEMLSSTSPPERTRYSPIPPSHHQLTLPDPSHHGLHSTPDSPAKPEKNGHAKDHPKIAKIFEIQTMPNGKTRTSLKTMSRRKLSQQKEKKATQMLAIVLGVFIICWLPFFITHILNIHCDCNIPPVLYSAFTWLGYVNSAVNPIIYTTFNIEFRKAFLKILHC

In general, Ki refers to a dissociation constant, usually derived from enzyme kinetics or from competition with a known ligand. The low end stands for tighter binding, the high end for weaker binding. One may read the Emax as the greatest response seen or fitted, relative to the assay's reference. Take `O=C(NCC[C@H](O)CN1CCN(c2cccc(Cl)c2Cl)CC1)c1cnc2ccccc2c1`: on D(3) dopamine receptor [1], the outcome was Active. Moreover, in the assay listed under Homo sapiens, the Ratio Ki was found to be 14. Also, the Ki on D(2) dopamine receptor came out at 316 nM; on D(3) dopamine receptor [3], 23.4 nM. This compound registered an Emax at D(3) dopamine receptor [2] of 53.9%.
Take `CC[C@H](O)CN1CCN(c2cccc(Cl)c2Cl)CC1`: at D(3) dopamine receptor [1], the outcome was Active. Also, the Ratio Ki in the assay filed under Homo sapiens was determined as 3. For the same compound, the Ki was found to be 93.1 nM on D(2) dopamine receptor and 34.3 nM at D(3) dopamine receptor [3]. The compound further showed an Emax on D(3) dopamine receptor [2] of 58.6%.
Take `O=C(NCCC(O)CN1CCN(c2cccc(Cl)c2Cl)CC1)c1cnc2ccccc2c1` (racemic): the Ratio Ki in the assay listed under Homo sapiens worked out at 63. Further, the Ki on D(2) dopamine receptor was determined as 268 nM; on D(3) dopamine receptor [3], 4.26 nM.
Take `O=C(NCCCCN1CCN(c2cccc(Cl)c2Cl)CC1)c1cnc2ccccc2c1`: the Ratio Ki in the assay listed under Homo sapiens was 58. Further, the Ki on D(2) dopamine receptor was determined as 10 nM; on D(3) dopamine receptor [3], 0.172 nM. On D(3) dopamine receptor [2], this compound returned an Emax of 20.9%.
Take `C[C@H](O)CN1CCN(c2cccc(Cl)c2Cl)CC1`: the Ratio Ki in the assay filed under Homo sapiens came to 4. For the same compound, the Ki at D(2) dopamine receptor worked out at 317 nM; at D(3) dopamine receptor [3], 75.2 nM.
Consider `CCCCN1CCN(c2cccc(Cl)c2Cl)CC1`, for which the Ratio Ki in the assay filed under Homo sapiens came out at 2. The result at D(3) dopamine receptor [2] (10 pM to 100 uM) was inactive.
Regarding `O=C(NCC[C@@H](O)CN1CCN(c2cccc(Cl)c2Cl)CC1)c1cnc2ccccc2c1`, the outcome on D(3) dopamine receptor [1] was inactive. For the same compound, the Ratio Ki in the assay filed under Homo sapiens is 49. For the same compound, the Ki stood at 202 nM on D(2) dopamine receptor and 4.12 nM at D(3) dopamine receptor [3]. Further, the Emax at D(3) dopamine receptor [2] is 19.9%.
On to `CC[C@@H](O)CN1CCN(c2cccc(Cl)c2Cl)CC1`, for which the outcome at D(3) dopamine receptor [1] was inactive. The Ratio Ki in the assay filed under Homo sapiens was found to be 5. Moreover, the Ki at D(2) dopamine receptor was 588 nM; at D(3) dopamine receptor [3] it was 119 nM. The same compound displayed an Emax on D(3) dopamine receptor [2] of 11.6%.
Regarding `O=C(NCC[C@H](O)CN1CCN(c2cccc(Cl)c2Cl)CC1)c1cc2ccccc2[nH]1`, the outcome on D(3) dopamine receptor [1] was Active. This compound also registered an Emax at D(3) dopamine receptor [2] of 55.7%.
For the compound `C[C@@H](O)CN1CCN(c2cccc(Cl)c2Cl)CC1`, the Ratio Ki in the assay listed under Homo sapiens turned out to be 4. The values for the Ki on D(2) dopamine receptor and on D(3) dopamine receptor [3] were 1400 nM and 373 nM, respectively.
Take `O=C(NCC[C@@H](O)CN1CCN(c2cccc(Cl)c2Cl)CC1)c1cc2ccccc2[nH]1`: the outcome at D(3) dopamine receptor [1] was inactive. At D(3) dopamine receptor [2], this compound returned an Emax of 14.9%.

Values taken from ChEMBL document CHEMBL4052584, “Toward Understanding the Structural Basis of Partial Agonism at the Dopamine D3 Receptor” (J Med Chem, 2017).
